In patent publication US20130131321A1, “LIGANDS FOR ANTIBODY AND Fc-FUSION PROTEIN PURIFICATION BY AFFINITY CHROMATOGRAPHY” (GRAFFINITY PHARMACEUTICALS GMBH, priority 2010, published 2013):

What was measured:
[1] = test system: human poly-IgG (h-poly-IgG); experiment: Microtiter plate chromatography of resins, human poly-IgG (bound, yield); type: binding
Bevacizumab [2] = biological target: T1, Bevacizumab (Homo sapiens, UniProt P01857); experiment: Microtiter plate chromatography of resins, Bevacizumab whole IgG (bound, yield, selectivity); type: binding, humanized
T1 construct: fused on or other part: humanised anti-VEGF-A VH domain N-terminal of the gamma-1 constant region (engineered, no UniProt entry)

Tocilizumab = experiment: Microtiter plate chromatography of resins, Tocilizumab (bound, yield); type: binding, humanized
Palivizumab = experiment: Microtiter plate chromatography of resins, Palivizumab (bound, yield); type: binding, humanized
host cell proteins (HCP) [3] = experiment: Microtiter plate chromatography of resins, host cell proteins (bound); type: binding, CHO; settings: host cell proteins
Bevacizumab [4] = biological target: T1, Bevacizumab; experiment: Langmuir isotherms by batch adsorption; type: binding, humanized; settings: Bevacizumab in PBS pH 7.3, 25° C., at least 3 h; for Kd: read-out: Kd (dissociation constant, Langmuir isotherm)
Experimental: Experiments were performed with Bevacizumab as antibody. Parameters of Langmuir isotherms for purified antibody were determined by batch adsorption experiments in 96-well microtiter plates. In each well, 10 μl of sorbent slurry (50% v/v) were mixed with 100 μl of protein solution. Initial concentrations varied from 0.05-5 mg ml^−1 in phosphate-buffered saline (0.15 M NaCl, 20 mM phosphate buffer, pH 7.3; PBS). Reactions were agitated vigorously at 25° C. for at least 3 h. Afterwards, antibody concentration in the supernatents were measured by Bradford assay.
Parameters of Langmuir isotherms, i.e. dissociation constants Kd and maximum capacities qm, were determined from the measured concentrations in supernatants. Parameters were estimated by numerical fitting of the model equation derived by Chase (4).

Bevacizumab Fc fragment = experiment: Microtiter plate chromatography of resins, Bevacizumab Fc fragment (bound); type: binding, humanized; settings: for Bevacizumab Fc Bound (%): Bevacizumab Fc fragment
Experimental: (§1) Resins were assessed in packed mode by microtiter plate chromatography. For each column, approximately 30 μl of resin were transferred to a 384-well filter plate and sealed with appropriate top frits.
(§2) Columns were equilibrated with 6.7 column volumes (cv) of phosphate buffered saline (0.15 M NaCl, 20 mM sodium phosphate, pH 7.3; PBS) prior to injection. Either 3.3 cv of whole IgGs dissolved at 0.75 mg ml^−1, Fab or Fc fragments dissolved at 0.25 mg ml^−1 (all three in PBS) or host cell proteins (HCP) were injected onto columns. Antibody fragments of Bevacizumab (Fab and Fc) were prepared by cleavage of whole IgG with papain protease (3) according to the protocol of the manufacturer. […] Volumes transferred were spun through columns at 50 g for 1-2 min. During injection of samples, acceleration was reduced to 10 g and centrifugation time increased to 5-10 min. Effluent fractions were collected in 384-well plates and concentrations of protein analyzed by Bradford assay. Protein masses mi, mft and me (see below) were calculated as the product of fraction volume and measured protein concentration.
(§3) The fraction of ‘bound’ protein was calculated as the difference between the total mass of protein injected mi and the mass of protein detected in the flowthrough mft, divided by the total mass of protein injected.
(§4) the fraction of ‘bound’ protein and the ‘yield’ of protein were calculated for each resin based on data for whole IgG-antibodies. In the case of Bevacizumab fragments and host cell proteins, only the fraction of ‘bound’ protein is given. Selectivity of resins was calculated from data for Bevacizumab Whole IgG and host cell proteins. Due to limited experimental precision, selectivity was truncated beyond values of 10.

Bevacizumab Fab fragment = experiment: Microtiter plate chromatography of resins, Bevacizumab Fab fragment (bound); type: binding, humanized; settings: for Bevacizumab Fab Bound (%): Bevacizumab Fab fragment
Experimental: as §1, §2, §3, §4

host cell proteins (HCP) [5] = experiment: Microtiter plate chromatography of resins, host cell proteins (bound); type: binding, CHO; settings: estimate predicted on the basis of close analogs L49 and L50
[6] = fraction of whole IgG Bevacizumab bound to resin
[7] = mass of whole IgG Bevacizumab eluted / mass injected
[8] = estimate predicted on the basis of close analogs L49 and L50

| Bevacizumab IgG Bound (%) (Bevacizumab [2]; [8]) | Bevacizumab IgG Yield (%) (Bevacizumab [2]; [8]) | Compound | h-poly-IgG Bound (%) [1] | h-poly-IgG Yield (%) [1] | Bevacizumab IgG Bound (%) (Bevacizumab [2]; [6]) | Bevacizumab IgG Yield (%) (Bevacizumab [2]; [7]) | Tocilizumab Bound (%) (Tocilizumab) | Tocilizumab Yield (%) (Tocilizumab) | Palivizumab Bound (%) (Palivizumab) | Palivizumab Yield (%) (Palivizumab) | HCP Bound (%) (host cell proteins (HCP) [3]) | qm (maximum capacity, Langmuir isotherm) (Bevacizumab [4]) | Kd (Bevacizumab [4]) | Bevacizumab Fc Bound (%) (Bevacizumab Fc fragment) | Bevacizumab Fab Bound (%) (Bevacizumab Fab fragment) | HCP Bound (%) (host cell proteins (HCP) [5]) | binding of Bevacizumab Fc-fragment (Bevacizumab Fc fragment; Fc 0.25 mg ml^-1 in PBS) | binding of Bevacizumab Fab-fragment (Bevacizumab Fab fragment; Fab 0.25 mg ml^-1 in PBS) |
| --- | --- | --- | --- | --- | --- | --- | --- | --- | --- | --- | --- | --- | --- | --- | --- | --- | --- | --- |
| – | – | COc1ccc(NC(=O)c2cncc(-c3ccoc3)c2)cc1C(=O)NCCCN [Ligand L22, 5-[3-(3-Furyl)pyridin-5-yl]carboxamido-2-methoxybenzoic acid N-(3-aminopropyl)amide] | 63% | 58% | 100% | 92% | 62% | 58% | 40% | 34% | 33% | 29 mg per ml resin | 373 µM | – | – | – | – | – |
| – | – | C#Cc1cncc(C(=O)Nc2ccc(OC)c(C(=O)NCCCN)c2)c1 [Ligand L24, 5-(3-Ethynylpyridin-5-yl)carboxamido-2-methoxybenzoic acid N-(3-aminopropyl)amide] | 45% | 47% | 100% | 97% | 41% | 40% | 24% | 21% | 29% | 33 mg per ml resin | 596 µM | – | – | – | – | – |
| – | – | COc1ccc(NC(=O)c2cncc(-c3ccco3)c2)cc1C(=O)NCCCN [Ligand L13, 5-[3-(2-Furyl)pyridin-5-yl]carboxamido-2-methoxybenzoic acid N-(3-aminopropyl)amide] | 76% | 75% | 100% | 94% | 91% | 79% | 65% | 58% | 38% | 37 mg per ml resin | 411 µM | 64% | 9% | – | – | – |
| – | – | Cn1nc(C(=O)Nc2cccc(C(=O)NCCCN)c2)cc1-c1ccco1 [Ligand L17, 3-[5-(2-Furyl)-1-methylpyrazol-3-yl]carboxamidobenzoic acid N-(3-aminopropyl)amide] | 91% | 87% | 100% | 94% | 97% | 89% | 81% | 70% | 36% | 26 mg per ml resin | – | – | – | – | – | – |
| >95% | >85% | COc1ccc(NC(=O)c2cn3ccsc3n2)cc1C(=O)NCCOCC(=O)NCCCC[C@H](NC(=O)COCCNC(=O)c1cc(NC(=O)c2cn3ccsc3n2)ccc1OC)C(=O)NCCCN [Ligand L53, (S)-2,6-Bis{5-[5-(Imidazo[2,1-b]thiazol-6-ylcarboxamido)-2-methoxyphenylcarboxamido]-3-oxapentanoylamido}hexanoic acid (3-amino-1-propyl)amide] | – | – | – | – | >90% | >90% | – | – | – | – | – | – | – | <20% | – | – |
| – | – | COc1ccc(NC(=O)c2cncc(C3CC3)c2)cc1C(=O)NCCCN [Ligand L23, 5-(3-Cyclopropylpyridin-5-yl)carboxamido-2-methoxybenzoic acid N-(3-aminopropyl)amide] | 75% | 74% | 100% | 98% | 86% | 85% | 61% | 57% | 32% | 33 mg per ml resin | – | 67% | 12% | – | – | – |
| – | – | COc1ccc(NC(=O)c2nn(C)c3ccccc23)cc1C(=O)NCCCN [Ligand L27, 2-Methoxy-5-(1-methylindazol-3-yl)carboxamidobenzoic acid N-(3-aminopropyl)amide] | 98% | 89% | 100% | 94% | 100% | 104% | 100% | 94% | 35% | 33 mg per ml resin | – | 96% | 6% | – | bound the Fc-fragment | not the Fab-fragment |
